# Measurements taken from patent publication US10759766B2, “Certain chemical entities, compositions, and methods” (NeuPharma, Inc., priority 2011, dated 2020).
# Legend:
# BRAF = BRAF (Homo sapiens (Human), UniProt P15056); assay: Z′-LYTE kinase inhibition assay (Invitrogen), BRAF; type: biochemical; conditions: 1 μM compound, Z′-LYTE method; read-out: % inhibition at 1 μM against BRAF
# KDR (VEGFR2) = KDR (VEGFR2) (Homo sapiens (Human), UniProt P35968); assay: Z′-LYTE kinase inhibition assay (Invitrogen), KDR; type: biochemical; conditions: Z′-LYTE method; for inhibition at 1 µM: 1 μM compound, read-out: % inhibition at 1 μM against KDR; for IC50: read-out: IC50 against KDR
# Method in brief: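 Z′-LYTE FRET assay: 10 μL reactions with 0.5–11.7 ng KDR and 2 μM Tyr 01 peptide in 50 mM HEPES pH 7.5, 10 mM MgCl2, 1 mM EGTA, 0.01% BRIJ-35, 1 h at room temperature. Development Reagent B (1:256) added for 60 min, fluorescence read; IC50 from concentration–inhibition curves.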
# A375 cells = assay: Inhibition of cancer cell growth, MTT assay, A375; type: cell-based; conditions: Homo sapiens, A-375, 72 h exposure
# Method in brief: (§1)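 IC50 derived from percent growth inhibition versus concentration, tested in triplicate. Growth inhibition came from MTT read at 570 nm after 72 h drug exposure, relative to viable cells at dosing. Cells (about 4000/well, RPMI 1640 + 10% FBS) adhered 24 h before treatment; final DMSO 1%.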
# BRAF V600E = BRAF V600E (Homo sapiens (Human), UniProt P15056, V600E); assay: Z′-LYTE kinase inhibition assay (Invitrogen), BRAF V600E; type: biochemical; conditions: Z′-LYTE method; for inhibition at 1 µM: 1 μM compound, read-out: % inhibition at 1 μM against BRAF V600E; for IC50: read-out: IC50 against BRAF V600E
# Method in brief: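 FRET-based Z′-LYTE peptide phosphorylation format in 50 mM HEPES pH 7.5, 0.01% BRIJ-35, 10 mM MgCl2, 1 mM EGTA with ATP. Kinase reaction 60 min at room temperature, then protease development step 60 min at room temperature before fluorescence read. IC50 from compound concentration versus percent inhibition.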
# A549 cells = assay: Inhibition of cancer cell growth, MTT assay, A549; type: cell-based; conditions: Homo sapiens, A549, 72 h exposure
# Method in brief: as §1
# Chain of BRAF (P15056 whole entry): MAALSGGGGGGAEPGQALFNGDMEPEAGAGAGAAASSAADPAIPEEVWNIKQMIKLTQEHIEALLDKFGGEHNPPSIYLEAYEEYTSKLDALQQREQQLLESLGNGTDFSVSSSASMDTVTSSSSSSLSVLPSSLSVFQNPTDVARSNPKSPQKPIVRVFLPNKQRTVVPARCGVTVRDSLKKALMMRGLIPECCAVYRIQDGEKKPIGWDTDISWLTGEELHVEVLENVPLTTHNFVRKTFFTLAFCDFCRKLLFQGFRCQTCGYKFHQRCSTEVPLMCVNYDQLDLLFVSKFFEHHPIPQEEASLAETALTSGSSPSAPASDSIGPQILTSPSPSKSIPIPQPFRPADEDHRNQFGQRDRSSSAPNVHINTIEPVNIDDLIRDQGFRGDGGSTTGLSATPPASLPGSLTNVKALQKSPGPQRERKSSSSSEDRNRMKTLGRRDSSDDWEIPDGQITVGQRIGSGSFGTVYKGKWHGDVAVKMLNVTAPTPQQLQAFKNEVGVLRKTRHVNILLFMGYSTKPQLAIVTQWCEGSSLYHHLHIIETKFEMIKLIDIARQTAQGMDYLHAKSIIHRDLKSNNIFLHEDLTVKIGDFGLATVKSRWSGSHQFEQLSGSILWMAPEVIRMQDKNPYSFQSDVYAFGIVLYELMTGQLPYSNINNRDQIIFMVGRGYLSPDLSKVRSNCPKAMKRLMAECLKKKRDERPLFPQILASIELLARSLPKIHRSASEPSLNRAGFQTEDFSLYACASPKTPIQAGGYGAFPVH
# Chain of BRAF V600E (P15056 whole entry V600E): as the sequence (P15056 whole entry) above, with V600E counted along it
# Chain of KDR (VEGFR2) (P35968 20-1356): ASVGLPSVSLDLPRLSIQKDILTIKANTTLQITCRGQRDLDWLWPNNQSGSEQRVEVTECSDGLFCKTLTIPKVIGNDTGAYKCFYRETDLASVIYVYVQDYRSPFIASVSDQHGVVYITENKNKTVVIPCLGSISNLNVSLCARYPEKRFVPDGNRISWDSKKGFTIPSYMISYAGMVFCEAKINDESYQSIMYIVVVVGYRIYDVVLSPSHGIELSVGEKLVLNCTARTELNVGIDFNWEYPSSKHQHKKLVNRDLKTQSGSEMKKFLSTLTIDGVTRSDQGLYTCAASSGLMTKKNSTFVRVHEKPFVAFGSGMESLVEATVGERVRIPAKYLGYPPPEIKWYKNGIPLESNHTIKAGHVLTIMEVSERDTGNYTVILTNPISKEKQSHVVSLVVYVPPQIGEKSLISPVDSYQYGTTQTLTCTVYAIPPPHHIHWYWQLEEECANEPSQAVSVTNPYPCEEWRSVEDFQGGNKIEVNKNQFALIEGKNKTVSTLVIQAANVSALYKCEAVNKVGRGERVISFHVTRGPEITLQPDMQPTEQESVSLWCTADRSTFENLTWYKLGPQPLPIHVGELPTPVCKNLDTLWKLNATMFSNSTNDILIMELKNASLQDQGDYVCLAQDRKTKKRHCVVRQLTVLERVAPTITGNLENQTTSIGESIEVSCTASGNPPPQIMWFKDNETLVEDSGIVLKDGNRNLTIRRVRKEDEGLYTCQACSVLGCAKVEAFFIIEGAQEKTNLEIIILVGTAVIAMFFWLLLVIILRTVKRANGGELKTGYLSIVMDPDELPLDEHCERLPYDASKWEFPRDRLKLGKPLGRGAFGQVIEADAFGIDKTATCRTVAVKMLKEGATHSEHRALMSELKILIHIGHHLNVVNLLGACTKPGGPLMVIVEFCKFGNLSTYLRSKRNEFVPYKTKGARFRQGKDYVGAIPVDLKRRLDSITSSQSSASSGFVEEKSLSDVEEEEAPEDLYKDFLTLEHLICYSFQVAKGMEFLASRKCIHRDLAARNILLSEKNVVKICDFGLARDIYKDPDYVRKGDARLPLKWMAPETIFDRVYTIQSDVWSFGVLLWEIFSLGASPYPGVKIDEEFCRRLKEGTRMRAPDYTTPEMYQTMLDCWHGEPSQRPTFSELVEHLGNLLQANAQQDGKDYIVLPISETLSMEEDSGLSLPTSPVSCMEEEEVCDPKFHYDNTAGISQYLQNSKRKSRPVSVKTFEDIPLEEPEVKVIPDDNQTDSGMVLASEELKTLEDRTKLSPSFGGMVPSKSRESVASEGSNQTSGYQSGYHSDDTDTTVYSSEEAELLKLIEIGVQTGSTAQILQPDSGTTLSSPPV
inhibition at 1 µM (BRAF) [%],inhibition at 1 µM (KDR (VEGFR2)) [%],IC50 (A375 cells) [µM],inhibition at 1 µM (BRAF V600E) [%],IC50 (A549 cells) [µM],IC50 (KDR (VEGFR2)) [µM],IC50 (BRAF V600E) [µM],Compound
< 70,> 89,< 1,70 to 89,2 to 5,< 0.1,> 0.1,"O=C(Nc1ccc(F)c(C(=O)c2ccc3ncc(N4CCOCC4)nc3c2)c1)c1ccc(Cl)c(C(F)(F)F)c1 [Compound C134, 4-chloro-N-(4-fluoro-3-(3-morpholinoquinoxaline-6-carbonyl)phenyl)-3-(trifluoromethyl)benzamide]"
< 70,> 89,< 1,> 89,< 2,< 0.1,< 0.1,"O=C(Nc1ccc(F)c(C(=O)c2ccc3ncc(N4CCOCC4)nc3c2)c1)c1cccc(C(F)(F)F)c1 [Compound C141, N-(4-fluoro-3-(3-morpholinoquinoxaline-6-carbonyl)phenyl)-3-(trifluoromethyl)benzamide]"
< 70,70 to 89,< 1,> 89,2 to 5,< 0.1,< 0.1,"O=C(Nc1cc(F)cc(C(=O)c2ccc3ncc(N4CCOCC4)nc3c2)c1)c1cccc(C(F)(F)F)c1 [Compound C143, N-(3-fluoro-5-(3-morpholinoquinoxaline-6-carbonyl)phenyl)-3-(trifluoromethyl)benzamide]"
70 to 89,70 to 89,1 to 5,> 89,2 to 5,–,–,"O=C(Nc1cc(F)c(F)c(C(=O)c2ccc3ncc(N4CCOCC4)nc3c2)c1)c1cccc(F)c1 [Compound C144, N-(3,4-difluoro-5-(3-morpholinoquinoxaline-6-carbonyl)phenyl)-3-fluorobenzamide]"
< 70,> 89,< 1,> 89,> 5,< 0.1,< 0.1,"O=C(Nc1cc(F)c(F)c(C(=O)c2ccc3ncc(N4CCOCC4)nc3c2)c1)c1cccc(C(F)(F)F)c1 [Compound C145, N-(3,4-difluoro-5-(3-morpholinoquinoxaline-6-carbonyl)phenyl)-3-(trifluoromethyl)benzamide]"
< 70,> 89,< 1,70 to 89,2 to 5,< 0.1,> 0.1,"O=C(Nc1cc(F)c(F)c(C(=O)c2ccc3ncc(N4CCOCC4)nc3c2)c1)c1ccc(Cl)c(C(F)(F)F)c1 [Compound C146, 4-chloro-N-(3,4-difluoro-5-(3-morpholinoquinoxaline-6-carbonyl)phenyl)-3-(trifluoromethyl)benzamide]"

# More lines, now with the values behind:
Compound,inhibition at 1 µM (BRAF) [%],inhibition at 1 µM (KDR (VEGFR2)) [%],IC50 (A375 cells) [µM],inhibition at 1 µM (BRAF V600E) [%],IC50 (A549 cells) [µM],IC50 (KDR (VEGFR2)) [µM],IC50 (BRAF V600E) [µM]
"O=C(Nc1ccc(F)c(C(=O)c2ccc3nccnc3c2)c1)c1cccc(C(F)(F)F)c1 [Compound C116, N-(4-fluoro-3-(quinoxaline-6-carbonyl)phenyl)-3-(trifluoromethyl)benzamide]",70 to 89,> 89,< 1,> 89,2 to 5,–,–
"O=C(Nc1cccc(C(=O)c2ccc3ncc(N4CCOCC4)nc3c2)c1)c1cccc(C(F)(F)F)c1 [Compound C119, N-(3-(3-morpholinoquinoxaline-6-carbonyl)phenyl)-3-(trifluoromethyl)benzamide]",70 to 89,> 89,< 1,> 89,2 to 5,< 0.1,< 0.1
"O=C(Nc1cccc(C(=O)c2ccc3ncc(N4CCCC4)nc3c2)c1)c1cccc(F)c1 [Compound C121, 3-fluoro-N-(3-(3-(pyrrolidin-1-yl)quinoxaline-6-carbonyl)phenyl)benzamide]",< 70,70 to 89,< 1,70 to 89,< 2,< 0.1,> 0.1
"O=C(Nc1cccc(C(=O)c2ccc3ncc(N4CCCC4)nc3c2)c1)c1cccc(C(F)(F)F)c1 [Compound C122, N-(3-(3-(pyrrolidin-1-yl)quinoxaline-6-carbonyl)phenyl)-3-(trifluoromethyl)benzamide]",70 to 89,> 89,1 to 5,> 89,2 to 5,< 0.1,< 0.1
"O=C(Nc1cccc(C(=O)c2ccc3ncc(-c4cccnc4)nc3c2)c1)c1ccc(C(F)(F)F)c(Cl)c1 [Compound C124, 3-chloro-N-(3-(3-(pyridin-3-yl)quinoxaline-6-carbonyl)phenyl)-4-(trifluoromethyl)benzamide]",< 70,> 89,> 5,> 89,> 5,< 0.1,< 0.1
"O=C(Nc1cccc(C(=O)c2ccc3ncc(-n4ccnc4)nc3c2)c1)c1ccc(Cl)c(C(F)(F)F)c1 [Compound C132, N-(3-(3-(1H-imidazol-1-yl)quinoxaline-6-carbonyl)phenyl)-4-chloro-3-(trifluoromethyl)benzamide]",< 70,70 to 89,< 1,> 89,> 5,–,–
"O=C(Nc1cccc(C(=O)c2ccc3ncc(-c4cn[nH]c4)nc3c2)c1)c1ccc(Cl)c(C(F)(F)F)c1 [Compound C133, N-(3-(3-(1H-pyrazol-4-yl)quinoxaline-6-carbonyl)phenyl)-4-chloro-3-(trifluoromethyl)benzamide]",< 70,> 89,< 1,70 to 89,2 to 5,–,–
